Results published in article PMC7400437, “Synthesis and Evaluation of the Antibacterial Activities of 13-Substituted Berberine Derivatives” (Antibiotics, 2020).
≈ marks a conversion by molar mass, not a printed value.

Key:
[1] = system: V. alginolyticus; assay: Macromolecule synthesis inhibition assay by fluorescent microscopy (morphological changes); details: 4 × MIC, 2 h, 37 °C; for Observed Morphology: DNA, V. alginolyticus: DAPI; for Observed Morphology: cell membrane, V. alginolyticus: FM4-64FX
[2] = system: B. subtilis; assay: as above; details: 4 × MIC, 2 h, 37 °C; for Observed Morphology: DNA, B. subtilis: DAPI
[3] = system: C. albicans; assay: MIC, antifungal activity assay; format: cell-based, Candida albicans (DSM 10697); details: Candida albicans; Table 1 first screening; 35 °C, 24 h; read-out: Minimal Inhibitory Concentration (MIC) C. albicans
[4] = system: S. aureus; assay: MIC, antimicrobial activity assay; format: cell-based, Staphylococcus aureus (ATCC 6538P); details: Staphylococcus aureus; Table 1 first screening; read-out: Minimal Inhibitory Concentration (MIC) S. aureus
[5] = system: P. aeruginosa; assay: MIC, antimicrobial activity assay; format: cell-based, Pseudomonas aeruginosa (ATCC 9027); details: Pseudomonas aeruginosa; Table 1 first screening; read-out: Minimal Inhibitory Concentration (MIC) P. aeruginosa
[6] = system: E. coli; assay: MIC, antimicrobial activity assay; format: cell-based, Escherichia coli (ATCC 8739); details: Escherichia coli; Table 1 first screening; read-out: Minimal Inhibitory Concentration (MIC) E. coli
[7] = system: M. smegmatis; assay: microbe, parasite or virus in culture; format: cell-based, Mycobacterium smegmatis (mc2155, ATCC 700084); details: Mycolicibacterium smegmatis, 72 h, read-out: Minimal Inhibitory Concentration (MIC) M. smegmatis
[8] = system: B. subtilis; assay: MIC, antimicrobial activity assay; format: cell-based, Bacillus subtilis (ATCC 6633); details: Bacillus subtilis; Table 1 first screening; read-out: Minimal Inhibitory Concentration (MIC) B. subtilis
[9] = system: HepG2 (human liver cells); assay: Cytotoxic assay on human cells (resazurin); format: cell-based; details: HepG2, 48 h, read-out: Inhibitory Concentration 50 (IC50) on cell viability, HEPG2
Experimental: (§1) The toxicity of berberine and berberine’s derivatives on human cells was evaluated using resazurin assay as previously described. Human cells used were BEAS (ATCC CRL-9609), Caco2 (ATCC HTB-37) and HepG2 (ATCC HB-8065) corresponding respectively to human airway epithelial cells, intestinal epithelial cells and liver cells. Cells were cultured in Dulbecco’s modified essential medium (DMEM) supplemented with 10% fetal bovine serum (FBS), 1% L-glutamine and 1% antibiotics (Thermo Fisher Scientific, Illkirch-Graffenstaden, France). Cells were routinely grown on 25 cm^2 flasks and maintained in a 5% CO2 incubator at 37 °C. For toxicity assay, cells were detached using trypsin–EDTA solution (Thermo Fisher Scientific), counted using Mallasez counting chamber and seeded into 96-well cell culture plates (Greiner bio-One, Dominique Dutscher, Brumath, France) at approximately 10,000 cells per well. The cells were left to grow for 48–72 h at 37 °C in a 5% CO2 incubator until they reached confluence. Media from wells was then aspirated and cells were treated with 100 µL of culture media containing increasing concentrations of berberine or berberine’s derivatives obtained by serial dilution (from 0 to 50 µM, 1:2 dilution), DMSO (0.5% DMSO final concentration) was used as negative control. After 48 h incubation at 37 °C in a 5% CO2 incubator, cell viability was evaluated using resazurin based in vitro toxicity assay kit (Sigma-Aldrich) following manufacturer’s instructions. Briefly, cell wells were emptied, and cells were treated with 100 µL of resazurin diluted 1:10 in sterile PBS containing calcium and magnesium (PBS^++, pH 7.4). After 4 h incubation at 37 °C, fluorescence intensity (excitation wavelength of 530 nm/emission wavelength of 590 nm) was measured using Synergy Mx microplate reader (Biotek). The fluorescence values were normalized by the controls (DMSO treated cells) and expressed as percent viability. The IC50 values of berberine and berberine’s derivatives on cell viability (i.e., the concentration of derivative causing a reduction of 50% of the cell viability) were calculated using GraphPad® Prism 7 software (San Diego, CA, USA). t-Test and two ways ANOVA analyses were used to address the significant differences between mean values with significance set at p < 0.05.

[10] = system: Caco2 (human intestinal epithelial cells); assay: Cytotoxic assay on human cells (resazurin); format: cell-based; details: Homo sapiens, Caco-2, 48 h, read-out: Inhibitory Concentration 50 (IC50) on cell viability, Caco2
Experimental: as §1

[11] = system: BEAS (human airway epithelial cells); assay: Cytotoxic assay on human cells (resazurin); format: cell-based; details: Epithelial cell, 48 h, means +/−SD, read-out: Inhibitory Concentration 50 (IC50) on cell viability, BEAS
Experimental: as §1

CC1(C)S[C@@H]2[C@H](NC(=O)[C@H](N)c3ccc(O)cc3)C(=O)N2[C@H]1C(=O)O [Amoxicillin]
Observed Morphology: cell elongation, V. alginolyticus [1]: 1–3 times compared to control | Observed Morphology: cells connected, V. alginolyticus [1]: 1–2 cells connected | Observed Morphology: DNA, V. alginolyticus [1]: Thick condensed and decondensed DNA spanning the cell | Observed Morphology: cell membrane, V. alginolyticus [1]: Cell membrane thickening | Observed Morphology: cell elongation/enlargement, B. subtilis [2]: 1.5 times compared to control | Observed Morphology: cells connected, B. subtilis [2]: 2–4 cells connected | Observed Morphology: DNA, B. subtilis [2]: 2 condensed DNA in each cell

C[C@@H]1[C@H](O)[C@@H](C)/C=C/C=C/C=C/C=C/C=C/C=C/C=C/[C@H](O[C@@H]2O[C@H](C)[C@@H](O)[C@H](N)[C@@H]2O)C[C@@H]2O[C@](O)(C[C@@H](O)C[C@@H](O)[C@H](O)CC[C@@H](O)C[C@@H](O)CC(=O)O[C@H]1C)C[C@H](O)[C@H]2C(=O)O [Amphotericin B, reference compound]
MIC [3]: 1.1 µM (≈ 1.02 µg/mL)

COc1ccc2c(Cc3ccc(C=NO)cc3)c3[n+](cc2c1OC)CCc1cc2c(cc1-3)OCO2 [Compound 21, N-({4-[(Berberin-13-yl)methyl]phenyl}methylidene)hydroxylamine]
MIC [4]: 50 µM | MIC [3]: > 100 µM | MIC [5]: > 100 µM | MIC [6]: > 100 µM | MIC [7]: 50 µM | MIC [8]: 100 µM

C=Cc1ccc(Cc2c3[n+](cc4c(OC)c(OC)ccc24)CCc2cc4c(cc2-3)OCO4)cc1 [Compound 9, 13-(4-Ethenylbenzyl)Berberine]
MIC [4]: 3.12 µM | MIC [3]: 50 µM | MIC [5]: > 100 µM | IC50 [9]: > 50 µM | IC50 [10]: 24.8 ± 3.6 µM | IC50 [11]: 12.8 ± 1.6 µM | MIC [6]: > 100 µM | MIC [7]: 6.25 µM | MIC [8]: 12.5 µM

COc1ccc2c(Cc3ccc(-c4nc5ccccc5s4)cc3)c3[n+](cc2c1OC)CCc1cc2c(cc1-3)OCO2 [Compound 19]
MIC [4]: 1.5 to 3.12 µM | MIC [3]: 6.25 µM | MIC [5]: > 100 µM | IC50 [9]: 31.2 ± 7.1 µM | IC50 [10]: 12 ± 1.3 µM | IC50 [11]: 4.92 ± 0.6 µM | MIC [6]: > 100 µM | MIC [7]: 12.5 µM | MIC [8]: 1.5 µM

CN(C)[C@@H]1C(O)=C(C(N)=O)C(=O)[C@@]2(O)C(O)=C3C(=O)c4c(O)cccc4[C@@](C)(O)[C@H]3C[C@@H]12 [Tetracycline]
Observed Morphology: cell elongation, V. alginolyticus [1]: 1.5–3 times compared to control | Observed Morphology: cells connected, V. alginolyticus [1]: 1–3 cells connected | Observed Morphology: DNA, V. alginolyticus [1]: DNA condensed in one thin filament spiring the cells | Observed Morphology: cell elongation/enlargement, B. subtilis [2]: 1.5–3 times compared to control | Observed Morphology: cells connected, B. subtilis [2]: 1–3 cells connected | Observed Morphology: DNA, B. subtilis [2]: DNA condensed in one thin filament across the cells

COc1ccc2c(Cc3ccc(CN)cc3)c3[n+](cc2c1OC)CCc1cc2c(cc1-3)OCO2 [Compound 11, 13-(4-Aminomethylbenzyl)Berberine]
MIC [4]: 25 µM | MIC [3]: 100 µM | MIC [5]: > 100 µM | IC50 [9]: > 50 µM | IC50 [10]: > 50 µM | IC50 [11]: > 50 µM | MIC [6]: > 100 µM | MIC [7]: 50 µM | MIC [8]: 25 µM

COc1ccc2c(O)c3[n+](cc2c1OC)CCc1cc2c(cc1-3)OCO2 [Compound 2, 13-hydroxyberberine]
MIC [4]: 12.5 to 25 µM | MIC [3]: > 100 µM | MIC [5]: > 100 µM | IC50 [9]: > 50 µM | IC50 [10]: 34.2 ± 3.8 µM | IC50 [11]: > 50 µM | MIC [6]: > 100 µM | MIC [7]: 25 µM | MIC [8]: 50 µM

COc1ccc2c(Cc3ccc(S(N)(=O)=O)cc3)c3[n+](cc2c1OC)CCc1cc2c(cc1-3)OCO2 [Compound 10, 13-(4-Sulfamoylbenzyl)Berberine]
MIC [4]: > 100 µM | MIC [3]: > 100 µM | MIC [5]: > 100 µM | MIC [6]: > 100 µM | MIC [7]: > 100 µM | MIC [8]: > 100 µM

CO/N=C1\CN(c2nc3c(cc2F)c(=O)c(C(=O)O)cn3C2CC2)CC1CN (centres unmarked) [Gemifloxacin, reference compound]
MIC [4]: 0.06 µM (≈ 0.0234 µg/mL) | Observed Morphology: cell elongation, V. alginolyticus [1]: 3–9 times compared to control | Observed Morphology: cells connected, V. alginolyticus [1]: 1–2 cells connected | Observed Morphology: DNA, V. alginolyticus [1]: Thick condensed DNA spanning the cell | MIC [5]: 0.25 µM (≈ 0.0973 µg/mL) | Observed Morphology: cells connected, B. subtilis [2]: Single cells | Observed Morphology: DNA, B. subtilis [2]: Decondensed DNA | MIC [6]: 0.06 µM (≈ 0.0234 µg/mL) | MIC [7]: 2 µM (≈ 0.779 µg/mL) | MIC [8]: 0.02 µM (≈ 0.00779 µg/mL)

COc1ccc2c(Cc3ccc4c(c3)OCO4)c3[n+](cc2c1OC)CCc1cc2c(cc1-3)OCO2 [Compound 13, 13-[(2H-1,3-Benzodioxol-5-yl)methyl]Berberine]
MIC [4]: 6.25 to 12.5 µM | MIC [3]: 50 µM | MIC [5]: > 100 µM | IC50 [9]: > 50 µM | IC50 [10]: 31.4 ± 3.8 µM | IC50 [11]: 16.9 ± 1.5 µM | MIC [6]: > 100 µM | MIC [7]: 12.5 µM | MIC [8]: 25 µM

COc1ccc2c(Cc3ccc(C=O)cc3)c3[n+](cc2c1OC)CCc1cc2c(cc1-3)OCO2 [Compound 12, 13-(4-Formylbenzyl)Berberine]
MIC [4]: 100 µM | MIC [3]: > 100 µM | MIC [5]: > 100 µM | MIC [6]: > 100 µM | MIC [7]: 100 µM | MIC [8]: > 100 µM

COc1ccc2c(Cc3ccc(/C=C/C(=O)O)cc3)c3[n+](cc2c1OC)CCc1cc2c(cc1-3)OCO2 [Compound 22, (2E)-3-{4-[(Berberin-13-yl)methyl]phenyl}prop-2-enoic Acid]
MIC [4]: > 100 µM | MIC [3]: > 100 µM | MIC [5]: > 100 µM | MIC [6]: > 100 µM | MIC [7]: > 100 µM | MIC [8]: > 100 µM

COc1ccc2c(c1OC)C(CC(C)=O)N1CCc3cc4c(cc3C1=C2)OCO4 (centres unmarked) [Compound 3, 8-acetonyl dihydroberberine]
MIC [4]: 100 µM (≈ 39.3 µg/mL) | MIC [3]: 100 µM (≈ 39.3 µg/mL) | MIC [5]: > 100 µM | MIC [6]: > 100 µM | MIC [7]: 100 µM (≈ 39.3 µg/mL) | MIC [8]: > 100 µM

COc1ccc2c(CC(=O)O)c3[n+](cc2c1OC)CCc1cc2c(cc1-3)OCO2 [Compound 5, 13-(Acetic Acid) Berberine]
MIC [4]: 100 µM | MIC [3]: > 100 µM | MIC [5]: > 100 µM | MIC [6]: > 100 µM | MIC [7]: 50 µM | MIC [8]: 100 µM

CO[C@H]1/C=C/O[C@@]2(C)Oc3c(C)c(O)c4c(O)c(c(/C=N/N5CCN(C)CC5)c(O)c4c3C2=O)NC(=O)/C(C)=C\C=C\[C@H](C)[C@H](O)[C@@H](C)[C@@H](O)[C@@H](C)[C@H](OC(C)=O)[C@@H]1C [Rifampicin]
Observed Morphology: cell elongation, V. alginolyticus [1]: 2.5 times compared to control | Observed Morphology: cells connected, V. alginolyticus [1]: 1–2 cells connected | Observed Morphology: DNA, V. alginolyticus [1]: Condensed DNA spanning the cell | Observed Morphology: cell membrane, V. alginolyticus [1]: Cell membrane pigmentation | Observed Morphology: cell elongation/enlargement, B. subtilis [2]: 2.5 times compared to control | Observed Morphology: cells connected, B. subtilis [2]: 2–3 cells connected | Observed Morphology: DNA, B. subtilis [2]: DNA condensed in one thick filament crossing the cells some with dot like shape | Observed Morphology: cell membrane, B. subtilis ([2]; FM4-64FX): Cell membrane thickening

COc1ccc2c(Cc3ccc(C#N)cc3)c3[n+](cc2c1OC)CCc1cc2c(cc1-3)OCO2 [Compound 7, 13-(4-Cyanobenzyl)Berberine]
MIC [4]: 100 µM | MIC [3]: 100 µM | MIC [5]: > 100 µM | MIC [6]: > 100 µM | MIC [7]: 100 µM | MIC [8]: > 100 µM

COc1ccc2c(c1OC)CN1CCc3cc4c(cc3C1=C2)OCO4 [Compound 1, Dihydroberberine]
MIC [4]: 100 µM (≈ 33.7 µg/mL) | MIC [3]: 100 µM (≈ 33.7 µg/mL) | MIC [5]: > 100 µM | MIC [6]: > 100 µM | MIC [7]: > 100 µM | MIC [8]: > 100 µM
